Data on 17 compounds can be found in patent US20240083886A1, “HETEROCYCLIC GLP-1 AGONISTS” (Gasherbrum Bio, Inc., priority 2020, published 2024).

Read-outs that look alike come from different tables or passages of the source.

The target in this assay is GLP-1 Receptor (Homo sapiens, UniProt P43220). Description: GLP-1R agonist cAMP stimulation assay. The format is cell-based. Put shortly: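 HEK293/CRE-Luc cells stably expressing GLP-1R, 1000 cells/well in DPBS with 0.5 mM IBMX and 0.1% BSA, exposed to ½-log compound dilutions 30 min at 37 °C. cAMP measured by HTRF (665/615 nm) after 1 h at room temperature. % activity normalised between vehicle and MAX controls.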

The mark [1] stands for this setting: HEK293/GLP1R/CRE-LUC cells, cAMP dynamic 2 Kit (Cisbio), 30 min incubation at 37° C., read-out: EC50.

Sequence of GLP-1 Receptor (P43220 24-463, species assumed): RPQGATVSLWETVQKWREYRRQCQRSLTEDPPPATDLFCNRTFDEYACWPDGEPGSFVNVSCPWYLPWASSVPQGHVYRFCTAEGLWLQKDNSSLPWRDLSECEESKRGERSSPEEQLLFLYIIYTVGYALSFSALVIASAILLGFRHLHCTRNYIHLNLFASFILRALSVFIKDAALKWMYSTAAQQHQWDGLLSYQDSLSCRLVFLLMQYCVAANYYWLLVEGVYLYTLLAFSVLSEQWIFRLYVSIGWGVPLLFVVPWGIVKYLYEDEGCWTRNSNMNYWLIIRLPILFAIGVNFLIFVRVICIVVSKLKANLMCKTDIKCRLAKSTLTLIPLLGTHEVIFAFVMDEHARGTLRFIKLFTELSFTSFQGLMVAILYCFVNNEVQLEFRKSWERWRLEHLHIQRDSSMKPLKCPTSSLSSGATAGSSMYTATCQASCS

One may read the EC50 as the midpoint of the concentration-response curve. On to `Fc1cc(Cl)ccc1Cc1cccc(OC2CCN(Cc3nc4cc(-c5nnn[nH]5)ncc4n3C[C@@H]3CCO3)CC2)n1` [Compound 176a, 2-[(4-chloro-2-fluorophenyl)methyl]-6-({1-[(3-{[(2S)-oxetan-2-yl]methyl}-6-(1H-1,2,3,4-tetrazol-5-yl)-3H-imidazo[4,5-c]pyridin-2-yl)methyl]piperidin-4-yl}oxy)pyridine], for which, under setting [1], the EC50 came to 0.2 nM. Still for that read-out and setting: in the case of `Fc1cc(Cl)ccc1Cc1nccc(OC2CCN(Cc3nc4cc(-c5nnn[nH]5)ncc4n3C[C@@H]3CCO3)CC2)n1` [Compound 177a, 2-[(4-chloro-2-fluorophenyl)methyl]-4-({1-[(3-{[(2S)-oxetan-2-yl]methyl}-6-(1H-1,2,3,4-tetrazol-5-yl)-3H-imidazo[4,5-c]pyridin-2-yl)methyl]piperidin-4-yl}oxy)pyrimidine] it was 0.13 nM. Take `N#CC1(Cn2c(CN3CCC(Oc4nc(Cc5ccc(Cl)cc5)ncc4F)CC3)nc3cc(-c4nnc(C(F)(F)F)[nH]4)ncc32)CC1` [Compound 178, 1-[(2-{[4-({2-[(4-chlorophenyl)methyl]-5-fluoropyrimidin-4-yl}oxy)piperidin-1-yl]methyl}-6-[5-(trifluoromethyl)-4H-1,2,4-triazol-3-yl]-3H-imidazo[4,5-c]pyridin-3-yl)methyl]cyclopropane-1-carbonitrile]: the EC50 under setting [1] worked out at 0.2 nM.

Take `N#CC1(Cn2c(CN3CCC(Oc4cccc(Cc5ccc(Cl)cc5F)n4)CC3)nc3cc(-c4nnc(C(F)(F)F)[nH]4)ncc32)CC1` [Compound 179, 1-[(2-{[4-({6-[(4-chloro-2-fluorophenyl)methyl]pyridin-2-yl}oxy)piperidin-1-yl]methyl}-6-[5-(trifluoromethyl)-4H-1,2,4-triazol-3-yl]-3H-imidazo[4,5-c]pyridin-3-yl)methyl]cyclopropane-1-carbonitrile]: the EC50 under setting [1] is 0.49 nM. On the same count and under the same terms, under `Fc1cc(Cl)ccc1Cc1ncc(F)c(OC2CCN(Cc3nc4cc(-c5nnc(C(F)(F)F)[nH]5)nnc4n3C[C@@H]3CCO3)CC2)n1` [Compound 180a, 2-[(4-chloro-2-fluorophenyl)methyl]-5-fluoro-4-({1-[(7-{[(2S)-oxetan-2-yl]methyl}-3-[5-(trifluoromethyl)-4H-1,2,4-triazol-3-yl]-7H-imidazo[4,5-c]pyridazin-6-yl)methyl]piperidin-4-yl}oxy)pyrimidine] stands 0.65 nM; under `Fc1cc(Cl)ccc1Cc1cccc(OC2CCN(Cc3nc4cc(-c5nnc(C(F)(F)F)[nH]5)nnc4n3C[C@@H]3CCO3)CC2)n1` [Compound 181a, 2-[(4-chloro-2-fluorophenyl)methyl]-6-({1-[(7-{[(2S)-oxetan-2-yl]methyl}-3-[5-(trifluoromethyl)-4H-1,2,4-triazol-3-yl]-7H-imidazo[4,5-c]pyridazin-6-yl)methyl]piperidin-4-yl}oxy)pyridine], 0.58 nM; under `Fc1cc(Cl)ccc1Cc1nccc(OC2CCN(Cc3nc4cc(-c5nnc(C(F)(F)F)[nH]5)nnc4n3C[C@@H]3CCO3)CC2)n1` [Compound 182a, 2-[(4-chloro-2-fluorophenyl)methyl]-4-({1-[(7-{[(2S)-oxetan-2-yl]methyl}-3-[5-(trifluoromethyl)-4H-1,2,4-triazol-3-yl]-7H-imidazo[4,5-c]pyridazin-6-yl)methyl]piperidin-4-yl}oxy)pyrimidine], 0.2 nM. `COCc1nnc(-c2cc3nc(CN4CCC(Oc5cccc(Cc6ccc(Cl)cc6F)n5)CC4)n(C[C@@H]4CCO4)c3cn2)[nH]1` [Compound 183a, 2-[(4-chloro-2-fluorophenyl)methyl]-6-{[1-({6-[5-(methoxymethyl)-4H-1,2,4-triazol-3-yl]-3-{[(2S)-oxetan-2-yl]methyl}-3H-imidazo[4,5-c]pyridin-2-yl}methyl)piperidin-4-yl]oxy}pyridine] gave an EC50 of 3.3 nM.

As to `FC1(F)CCN(Cc2cccc(OC3CCN(Cc4nc5cc(-c6nnc(C(F)(F)F)[nH]6)ncc5n4C[C@@H]4CCO4)CC3)n2)CC1` [Compound 184a, 2-[(4,4-difluoropiperidin-1-yl)methyl]-6-({1-[(3-{[(2S)-oxetan-2-yl]methyl}-6-[5-(trifluoromethyl)-4H-1,2,4-triazol-3-yl]-3H-imidazo[4,5-c]pyridin-2-yl)methyl]piperidin-4-yl}oxy)pyridine], the EC50 under setting [1] was determined as 13 nM. Same read-out and setting: under `Fc1cc(Cc2cccc(OC3CCN(Cc4nc5cc(-c6nnc(C(F)(F)F)[nH]6)ncc5n4C[C@@H]4CCO4)CC3)n2)ccc1Cl` [Compound 185a, 2-[(4-chloro-3-fluorophenyl)methyl]-6-({1-[(3-{[(2S)-oxetan-2-yl]methyl}-6-[5-(trifluoromethyl)-4H-1,2,4-triazol-3-yl]-3H-imidazo[4,5-c]pyridin-2-yl)methyl]piperidin-4-yl}oxy)pyridine] stands 0.37 nM; under `FC(F)(F)c1cnn(Cc2cccc(OC3CCN(Cc4nc5cc(-c6nnc(C(F)(F)F)[nH]6)ncc5n4C[C@@H]4CCO4)CC3)n2)c1` [Compound 186a, 2-({1-[(3-{[(2S)-oxetan-2-yl]methyl}-6-[5-(trifluoromethyl)-4H-1,2,4-triazol-3-yl]-3H-imidazo[4,5-c]pyridin-2-yl)methyl]piperidin-4-yl}oxy)-6-{[4-(trifluoromethyl)-1H-pyrazol-1-yl]methyl}pyridine], 4.4 nM.

With `COc1cncc(-c2cc3nc(CN4CCC(Oc5cccc(Cc6ccc(Cl)cc6F)n5)CC4)n(C[C@@H]4CCO4)c3cn2)n1` [Compound 187a, 2-(2-{[4-({6-[(4-chloro-2-fluorophenyl)methyl]pyridin-2-yl}oxy)piperidin-1-yl]methyl}-3-{[(2S)-oxetan-2-yl]methyl}-3H-imidazo[4,5-c]pyridin-6-yl)-6-methoxypyrazine], the EC50 under setting [1] was greater than 300 nM. Consider `O=C(O)c1ccc2c(c1)nc(CN1CCC(Oc3cccc(Cc4ccc(Cl)cc4F)n3)CC1)n2C[C@@H]1CCO1` [Compound 188a, 2-{[4-({6-[(4-chloro-2-fluorophenyl)methyl]pyridin-2-yl}oxy)piperidin-1-yl]methyl}-1-{[(2S)-oxetan-2-yl]methyl}-1H-1,3-benzodiazole-5-carboxylic acid], for which the EC50 under setting [1] came out at 16 nM. The same measure, in the same setting: under `N#Cc1ccc(Cc2cccc(OC3CCN(Cc4nc5cc(-c6nnc(C(F)(F)F)[nH]6)ncc5n4C[C@@H]4CCO4)CC3)n2)c(F)c1` [Compound 190a, 3-fluoro-4-{[6-({1-[(3-{[(2S)-oxetan-2-yl]methyl}-6-[5-(trifluoromethyl)-4H-1,2,4-triazol-3-yl]-3H-imidazo[4,5-c]pyridin-2-yl)methyl]piperidin-4-yl}oxy)pyridin-2-yl]methyl}benzonitrile] stands 0.24 nM; under `Fc1cc(Cl)ccc1Cc1cccc(OC2CCN(Cc3nc4cc(-c5nnc(C(F)(F)F)[nH]5)ncc4n3C3CCOCC3)CC2)n1` [Compound 191, 2-[(4-chloro-2-fluorophenyl)methyl]-6-[(1-{[3-(oxan-4-yl)-6-[5-(trifluoromethyl)-4H-1,2,4-triazol-3-yl]-3H-imidazo[4,5-c]pyridin-2-yl]methyl}piperidin-4-yl)oxy]pyridine], 41 nM; under `COC1(Cn2c(CN3CCC(Oc4cccc(Cc5ccc(Cl)cc5F)n4)CC3)nc3cc(-c4nnc(C(F)(F)F)[nH]4)ncc32)CC1` [Compound 192, 2-[(4-chloro-2-fluorophenyl)methyl]-6-{[1-({3-[(1-methoxycyclopropyl)methyl]-6-[5-(trifluoromethyl)-4H-1,2,4-triazol-3-yl]-3H-imidazo[4,5-c]pyridin-2-yl}methyl)piperidin-4-yl]oxy}pyridine], 4 nM.

In turn, `N#Cc1nnc(-c2cc3nc(CN4CCC(Oc5nc(Cc6ccc(Cl)cc6F)ncc5F)CC4)n(C[C@@H]4CCO4)c3cn2)[nH]1` [Compound 193a, 5-(2-{[4-({2-[(4-chloro-2-fluorophenyl)methyl]-5-fluoropyrimidin-4-yl}oxy)piperidin-1-yl]methyl}-3-{[(2S)-oxetan-2-yl]methyl}-3H-imidazo[4,5-c]pyridin-6-yl)-4H-1,2,4-triazole-3-carbonitrile] showed an EC50 of 0.024 nM.
